Data set [1] relates to p16 TALE-DNMT (24-repeat TALE fused to DNMT3a-3L) (Xanthomonas TALE / DNMT3a-DNMT3L, engineered?). Put plainly: cell_activity. Particulars: HeLa transfection, 48 h, bisulfite sequencing, vs E752A mutant; up to 66.5% at individual CpGs.
Another data set deals with human islets. Put plainly: Immunofluorescent confocal analysis of Adox-treated human islets. The class given is cell-based. How it is done: (§1) Human islets and islets from GlucagonCre; Rosa26EYFP bigenic mice (Herrera et al., 2000; Srinivas et al., 2001) were cultured, treated with 50μM adenosine dialdehyde (Adox, Sigma A7154) for 72 h, FACS sorted as described previously (11), or prepared for immunostaining.
Immunofluorescent confocal analysis was performed as described previously (Gao et al., Genes Dev. 2010, Jun. 15, 24(12): 1295-305). Sections were blocked with CAS-Block (Invitrogen, 00-8120) and stained using guinea pig anti-insulin 1:500 (Abcam, ab7842), rabbit anti-glucagon 1:250 (Santa Cruz, sc13091), guinea-pig anti-Pdx1 1:1000 (gift from Dr. C. Wright), mouse anti-E-Cadherin 1:500 (BD Transduction Laboratories, 610181), goat anti-GFP (Abcam, ab6673), guinea pig Cy2, guinea pig Cy5, rabbit Cy3, mouse Cy2, mouse Cy5, goat Cy3 (1:500, Jackson-Immunoresearch) antibodies. For quantification of double PDX1+/GCG+ cells, Pdx1-, Glucagon-, E-Cadherin and DAPI staining were performed on untreated (control) and Adox-treated islets. All glucagon-positive cells and all double PDX1+/GCG+ cells were counted manually (8 slides) in each condition and the percentage of PDX1+/GCG+ double-positive cells of all glucagon-positive cells was calculated.

A further data set concerns H3K27me3. The data set can be described thus: H3K27me3 ChIP-Seq of whole human islets cultured in the absence or presence of Adox. It counts as cell-based. How it is done: Chromatin immunoprecipitation and preparation of ChIP-Seq libraries was performed on individual cell sorts for each cell type and donor (H3K4me3: Abcam 8580, H3K27me3: Upstate 07-449).
Libraries for H3K4me3, H3K27me3, and input were sequenced on an Illumina GA-IIx to 36 bp. Reads were aligned to hg18 using ELAND. Up to two mismatches were allowed and only reads with a best alignment to a single location were used for further analysis. Enrichment of H3K4me3 was performed on individual donors and cell types using GLITR (FDR=5%) (32) and a pool of human input from various tissues. GLITR was also run on islet cell input samples and any peaks identified in the inputs were filtered from the H3K4me3 enriched regions. Enriched regions in the H3K27me3 data were identified using the program STAR (33) with a sliding window of 5,000 bp, step size of 1,000 bp, and a FDR=0.5%. To ensure fair comparison, H3K4me3 and H3K27me3 profiles from CD4-positive T-cells (23) were determined using the same algorithms and settings.
as §1
The high incidence of bivalent marks in α-cells, the interesting bivalent pattern of β-cell and α-cell-specific transcription factors in α-cells, and the large overlap with bivalently-marked transcriptional regulators in hESC raised the likelihood that epigenomic manipulations could be exploited to reprogram human α-cells towards the β-cell phenotype. Several drugs, such as adenosine dialdehyde (Adox) and 3-Deazaneplanocin A (DZNep) interfere with histone methylation (24). The general histone methyltransferase inhibitor Adox, which amongst others decreases H3K27me3 levels (24), was employed to test whether modulation of the histone methylation status of human pancreatic islets could promote reprogramming. […]

The test system of the next data set is human α-cells. The data set can be described thus: RNA-Seq of FACS-sorted α-cells from Adox-treated human islets. The class given is cell-based. As to conditions: Adox-treated α-cells (Adox-α/β vs α/β ratio). How it is done:
(§2) After total RNA extraction (see above), RNA-Seq libraries were prepared from sorted alpha, beta, and exocrine cells. The detailed protocol can be found on http://ngsc.med.upenn.edu (Lab protocol, Library preparation for RNA-Seq from total RNA). Libraries were single-end sequenced to 100 bp on an Illumina hiSeq2000. Reads from ribosomal RNA and genomic repeats were identified by aligning the 5′ 50 bp of each read to ribosomal sequences and the human repeats in RepBase (version 14.10) using Bowtie (Langmead B., Curr. Protoc. Bioinformatics. 201, December Chapter 11: Unit 117) and allowing for up to three mismatches. The remaining reads were processed with RUM (Grant et al., Bioinformatics 2011. Sep. 15, 27(18): 2518-28) and aligned to the set of known transcripts included in RefSeq, UCSC known genes, and ENSEMBL transcripts, and the human genome (hg18, NCBI build 36.1). Transcript-, exon-, and intron-level quantification was done using only the uniquely aligning reads. This process was repeated separately for each cell type and donor.
(§3) To analyze global gene expression profiles from each sample, RNA-seq read counts aligning to exons of mRNA transcripts in RefSeq were extracted, and these values were normalized to total uniquely aligning reads and transcript length (RPKM). Data for individual genes was summarized by selecting a “representative transcript” with the highest RPKM value for each gene symbol (total=18,822 genes). Gene-level data was then quantile-normalized across all samples to remove bias from the variable expression levels of highly expressed genes, e.g., insulin, glucagon, and highly expressed ncRNAs, which dampen the relative signal of all other genes. Finally, quantile-normalized gene expression values were averaged together for samples of the same cell type to produce a single average gene profile for each cell type. These values were used for all subsequent analyses, including expression comparisons for individual genes of interest.
as §1
(§4) To investigate the transcriptional changes in Adox-treated human islets and confirm increased PDX1 expression, FACS analysis after Adox-treatment was performed using the same antibody panel as described above, followed by RNA-Seq analysis (n=2 treated α, n=2 treated β, technical replicates) and focused on cell-type-specific hormones and transcription factors. To assess whether Adox-treated β-cells become more α-cell like or vice versa, the ratio of expression levels in untreated β-cells and untreated α-cells (β/α) were first compared to the ratio in Adox-treated β-cells and untreated α-cells (Adox-β/α) (FIG. 6E). A decrease in NKX6-1 and MAFA levels, an increase in PDX1 levels and no change in insulin expression were found and no change in the expression levels of the α-cell specific genes glucagon or ARX were observed, giving no indication for a gain of α-cell identity. Second, the ratio of expression values in untreated α-cells and untreated β-cells (α/β) were compared to the ratio in Adox-treated α-cells and untreated β-cells (Adox-α/β) to elucidate whether Adox-treated α-cells become more ‘β-cell like’ (FIG. 6F).

The test system of a further data set is human β-cells. The data set can be described thus: RNA-Seq of FACS-sorted β-cells from Adox-treated human islets. The class given is cell-based. As to conditions: Adox-treated β-cells (Adox-β/α vs β/α ratio). Here is the method: as §2, §3, §1, §4
Data set [2] concerns islets from GlucagonCre; Rosa26EYFP mice. Put plainly: Lineage tracing: immunostaining of Adox-treated islets from GlucagonCre; Rosa26EYFP mice. The class given is cell-based. Particulars: mouse islets treated with Adox in vitro; not observed in control islets. Here is the method:
as §1
Immunofluorescent confocal analysis was performed as described previously (Gao et al., Genes Dev. 2010, Jun. 15, 24(12): 1295-305). […] For quantification of double PDX1+/GCG+ cells, Pdx1-, Glucagon-, E-Cadherin and DAPI staining were performed on untreated (control) and Adox-treated islets. All glucagon-positive cells and all double PDX1+/GCG+ cells were counted manually (8 slides) in each condition and the percentage of PDX1+/GCG+ double-positive cells of all glucagon-positive cells was calculated.
A priori, the co-localization of glucagon with insulin could be due to α- to β-cell fate or β- to α-cell fate conversion. […] For this purpose, islets from GlucagonCre; Rosa26EYFP mice were treated, in which α-cells are permanently marked by yellow fluorescence protein (YFP) expression (27, 28) with Adox in vitro. […]

For data set [3], the system named is p16 jTALE-DNMT (18-repeat TALE fused to DNMT3a-3L) (Xanthomonas TALE / DNMT3a-DNMT3L, engineered?). Put plainly: cell_activity. As to conditions: primary human fibroblasts, lentivirus, 4 days, vs mutant; p16 mRNA decreased about 50%; also active in HeLa and hCASMC.
Where [4] appears, read: whole human islets, 50μM Adox 72 h vs untreated.

Here are results for three molecules from patent US20170056524A1, “COMPOSITIONS AND METHODS FOR TARGETED EPIGENETIC MODIFICATION” (THE TRUSTEES OF THE UNIVERSITY OF PENNSYLVANIA, priority 2014, published 2017).

“Also recorded” adds a separate entry of the source.

On to “CCTCCTTCCTTGCCAACGCTGGCT (double strand) [CDKN2A (p16) promoter TALE target, 24 bp]”, for which the activity (% average increase in CpG methylation) in data set [1] amounted to 17.

Consider `Nc1ncnc2c1ncn2C(C=O)OC(C=O)CO` (stereo not shown) [Adox, adenosine dialdehyde], for which the “co-localization of glucagon and insulin granules within the same islet cell” value with human islets (50μM Adox 72 h, not seen in untreated islets) is “occasional co-occurrence of glucagon and insulin granules within the same islet cell; also recorded: co-localization of glucagon and insulin granules within the same cell; also recorded: co-localization of glucagon and insulin granules in pancreatic cells”. For the same molecule, the “PDX1 expression in glucagon-positive cells (PDX1+/GCG+ double-positive cells)” value with human islets (50μM Adox 72 h vs untreated) is given as “nuclear PDX1-expression in many glucagon-positive cells; also recorded: many double-positive cells”. In addition, the “H3K4me3-enrichment (FIG. 9A legend)” value in the data set with H3K27me3 (human islets treated with Adox) is given as “decrease”. In the data set with H3K27me3 (setting [4]), the “H3K27me3 enrichment at genes carrying a bivalent or monovalent H3K27me3 mark in all pancreatic cell populations” value is given as “strong decrease”; the “H3K27me3 enrichment at the ARX, MAFA and PDX1 loci” value is reported as “decrease; also recorded: decreased H3K27me3 levels”. In addition, in the data set on human α-cells, the ARX expression level entry is “increase”, the MAFA expression level entry is given as “slight decrease”, the NKX6-1 expression level result is listed as “slight decrease” and the PDX1 expression level entry is “increase”. For the same molecule, in the data set on human α-cells, the “glucagon (GCG) expression level” value was “no change” and the “insulin (INS) expression level” value is reported as “no change”. Moreover, in the data set with human β-cells, the ARX expression level result is “no change”, the MAFA expression level entry is on record as “decrease”, the NKX6-1 expression level result is “decrease” and the “glucagon (GCG) expression level” value is on record as “no change”. Further, the “insulin (INS) expression level” value with human β-cells is on record as “no change”. In addition, in data set [2], the “insulin granules in YFP+ (lineage-labeled α) cells” value is on record as “occurrence of insulin granules in YFP+ cells”.

On to “TCCTTGCCAACGCTGGCT (double strand) [CDKN2A (p16) promoter jTALE target, 18 bp]”, for which the activity (% average increase in CpG methylation) in data set [3] turned out to be 10.
